This is an account of results in ChEMBL document CHEMBL1201862, “PubChem BioAssay data set” (2004).

Test systems include CAKI-1; COLO 205; HCT-15; HT-29; IGROV-1; KM12; M14; MDA-MB-231; MDA-N; MOLT-4; Malme-3M; NCI/ADR-RES; SF-268; SF-295; SK-MEL-2; SK-MEL-5; SW-620; CCRF-CEM; RXF 393; HL-60.
Test in all cases: inhibition of tumour cell growth, NCI panel, 48 h

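1) Cells in 96-well plates. 2) Compound, 48 h, 5 concentrations. 3) Linear interpolation between surrounding doses. 4) Unreached endpoint = highest concentration. At the GI50, growth is halved.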 Calls of active or inactive are those of the source. Rule as the data show it: active = GI50 up to about 1.1 µM and inactive = higher. Where only a bound is given, the exact number is not on record here.

Take `COP1(=O)OCc2cnccc2O1` (centres undefined): the GI50 in the experiment on CAKI-1 is > 100 µM (inactive); in the experiment on COLO 205, > 100 µM (inactive); with HCT-15, more than 100 µM; in the experiment with HT-29 it was > 100 µM (inactive); with IGROV-1, > 100 µM (inactive); in the experiment with KM12, > 100 µM (inactive). For the same compound, the GI50 in the experiment on M14, in the experiment on MDA-MB-231, in the experiment on MDA-N, with MOLT-4, in the experiment with Malme-3M and in the experiment on NCI/ADR-RES was > 100 µM (inactive) each time. For the same compound, the GI50 with SF-268, in the experiment on SF-295, with SK-MEL-2, in the experiment with SK-MEL-5 and in the experiment on SW-620 was > 100 µM (inactive) each time.
On to `Cc1c2c(n(Cc3ccccn3)c1C)NN=C(C#N)S2(=O)=O`, for which the GI50 is > 100 µM (inactive) in the experiment with CAKI-1; > 100 µM (inactive) in the experiment on COLO 205; more than 100 µM with HCT-15; > 100 µM (inactive) with HT-29; > 100 µM (inactive) in the experiment on IGROV-1; > 100 µM (inactive) in the experiment with KM12. The GI50 in the experiment on M14, in the experiment with MDA-MB-231, in the experiment on MDA-N, with MOLT-4, in the experiment on NCI/ADR-RES and in the experiment with SF-268 was > 100 µM (inactive) each time. For the same compound, the GI50 in the experiment with SF-295, in the experiment on SK-MEL-2, in the experiment with SK-MEL-5 and in the experiment on SW-620 was > 100 µM (inactive) each time.
Regarding `OCCSCc1cc(Cl)cc(Cl)c1O`, the GI50 is > 100 µM (inactive) in the experiment with CAKI-1; > 100 µM (inactive) in the experiment on CCRF-CEM; > 100 µM (inactive) with COLO 205; more than 100 µM in the experiment with HCT-15; > 100 µM (inactive) in the experiment with HT-29; > 100 µM (inactive) in the experiment on IGROV-1. Moreover, the GI50 in the experiment on KM12, in the experiment on M14, in the experiment with MDA-MB-231, with MDA-N, with MOLT-4 and in the experiment with Malme-3M was > 100 µM (inactive) each time. The GI50 with NCI/ADR-RES, in the experiment with RXF 393, with SF-268, in the experiment on SF-295, with SK-MEL-5 and in the experiment with SW-620 was > 100 µM (inactive) throughout.
`O=C(Nc1ccccc1C(=O)Nc1nccs1)c1ccccc1`: the GI50 with CAKI-1 was 21.3 µM (inactive); with CCRF-CEM it was 4.98 µM (inactive); in the experiment with COLO 205, 4.04 µM (inactive); in the experiment with HCT-15 it was 4.37 µM; in the experiment with HL-60 it was 3.82 µM (inactive); with HT-29, 4.44 µM (inactive). Also, the GI50 with IGROV-1 was 35.8 µM (inactive); in the experiment with KM12, 6.03 µM (inactive); with M14, 19.7 µM (inactive); in the experiment with MDA-MB-231, 25.1 µM (inactive); in the experiment on MDA-N, 19.5 µM (inactive); with MOLT-4, 3.44 µM (inactive). Also, the GI50 in the experiment with Malme-3M is 10.5 µM (inactive); in the experiment with NCI/ADR-RES, 6.17 µM (inactive); in the experiment on SF-268, 14.6 µM (inactive); in the experiment with SF-295, 25.8 µM (inactive); in the experiment on SK-MEL-2, 5.22 µM (inactive); with SK-MEL-5 it was 4.55 µM (inactive). In addition, in the experiment with SW-620, the GI50 is 25.6 µM (inactive).
As for `CC1N[B@@-](C)(c2ccc(C(F)(F)F)cc2)OC1c1ccccc1` (some centres undefined), the GI50 was 42.6 µM (inactive) with CCRF-CEM; > 100 µM (inactive) in the experiment on COLO 205; 49.1 µM in the experiment on HCT-15; 12.7 µM (inactive) with HL-60; 72.1 µM (inactive) with HT-29; > 100 µM (inactive) in the experiment on IGROV-1. Besides, the GI50 in the experiment with M14 is > 100 µM (inactive); in the experiment with MDA-MB-231 it was > 100 µM (inactive); with MDA-N, > 100 µM (inactive); with MOLT-4, 29.9 µM (inactive); in the experiment with Malme-3M, 86.3 µM (inactive); with NCI/ADR-RES, > 100 µM (inactive). Besides, the GI50 in the experiment on SF-268 is > 100 µM (inactive); in the experiment on SF-295, > 100 µM (inactive); with SK-MEL-5, 87.7 µM (inactive); with SW-620 it was > 100 µM (inactive).
Regarding `Cc1cc(-c2nc3ccccc3s2)ccc1NS(=O)(=O)O`, the GI50 in the experiment on CAKI-1 is > 7.21 µM (inactive); in the experiment with CCRF-CEM it was > 4.65 µM (inactive); in the experiment on COLO 205, > 4.65 µM (inactive); in the experiment with HCT-15, more than 4.65 µM; in the experiment with HT-29, > 4.65 µM (inactive); in the experiment with IGROV-1 it was 1.11 µM (active). Further, the GI50 in the experiment with KM12 is > 4.65 µM (inactive); with M14 it was > 29.5 µM (inactive); with MDA-MB-231, > 24.1 µM (inactive); with MDA-N, > 6.04 µM (inactive); in the experiment on MOLT-4, 4.73 µM (inactive); in the experiment with Malme-3M it was > 6.56 µM (inactive). Moreover, the GI50 in the experiment on NCI/ADR-RES was > 7.1 µM (inactive); in the experiment on SF-268, > 9.64 µM (inactive); in the experiment on SF-295, > 43.1 µM (inactive); in the experiment with SK-MEL-5, > 100 µM (inactive); with SW-620, > 4.65 µM (inactive).
For the compound `CC(C)(C)n1c(=O)n2n(c1=O)C1c3cccc4cccc(c34)C2C2c3cccc4cccc(c34)C1n1c(=O)n(C(C)(C)C)c(=O)n12`, the GI50 in the experiment with CAKI-1 is 6.65 µM (inactive); in the experiment on CCRF-CEM, 32.7 µM (inactive); in the experiment on COLO 205 it was > 100 µM (inactive); with HCT-15, 74.5 µM; with HL-60 it was 30.5 µM (inactive); in the experiment on HT-29, > 100 µM (inactive). In addition, the GI50 in the experiment with IGROV-1 is 21.7 µM (inactive); with KM12 it was > 100 µM (inactive); in the experiment on M14 it was > 100 µM (inactive); in the experiment on MDA-MB-231, 32.9 µM (inactive); in the experiment with MDA-N it was > 100 µM (inactive); in the experiment with MOLT-4, 61 µM (inactive). Besides, the GI50 with Malme-3M was > 100 µM (inactive); in the experiment on NCI/ADR-RES, > 100 µM (inactive); in the experiment on SF-268 it was 53.8 µM (inactive); in the experiment with SF-295, 80.4 µM (inactive); with SK-MEL-2 it was 37.5 µM (inactive); with SK-MEL-5, > 100 µM (inactive). Moreover, the GI50 in the experiment on SW-620 is 90.4 µM (inactive).
As to `CC(O)c1nc(C#N)c(N)o1` (centres undefined), the GI50 with CAKI-1, in the experiment on CCRF-CEM, in the experiment with COLO 205, with HL-60, with HT-29 and with IGROV-1 was > 100 µM (inactive) each time. For the same compound, the GI50 in the experiment on KM12, with M14, in the experiment with MDA-MB-231, in the experiment with MDA-N, with MOLT-4 and in the experiment with Malme-3M was > 100 µM (inactive) each time. The GI50 in the experiment on NCI/ADR-RES, with SF-268, with SF-295, in the experiment on SK-MEL-2, in the experiment with SK-MEL-5 and in the experiment with SW-620 was > 100 µM (inactive) in each case.
As for `CCCC(=O)Nc1ncnc2c1ncn2C1OC2COP(=O)(O)OC2C1OC(=O)CCC` (centres undefined), the GI50 in the experiment with CAKI-1 is > 100 µM (inactive); with CCRF-CEM it was 266 µM (inactive); in the experiment with COLO 205 it was > 100 µM (inactive); in the experiment with HCT-15, more than 100 µM; in the experiment on HL-60, 180 µM (inactive); in the experiment on HT-29, > 100 µM (inactive). Moreover, the GI50 was 22.5 µM (inactive) with IGROV-1; > 100 µM (inactive) in the experiment on KM12; > 100 µM (inactive) in the experiment on M14; 479 µM (inactive) in the experiment with MDA-MB-231; > 100 µM (inactive) in the experiment on MDA-N; > 100 µM (inactive) in the experiment on MOLT-4. Moreover, the GI50 in the experiment with Malme-3M, with NCI/ADR-RES, in the experiment on SF-268, with SF-295, in the experiment on SK-MEL-2 and with SK-MEL-5 was > 100 µM (inactive) throughout. Further, the GI50 with SW-620 was > 100 µM (inactive).
`CC(=O)O[C@@H]1O[Si](C(C)(C)C)(C(C)(C)C)[C@H](C)[C@H]1C`: the GI50 with CAKI-1 is > 100 µM (inactive); in the experiment on CCRF-CEM, 40.6 µM (inactive); in the experiment with COLO 205 it was > 100 µM (inactive); in the experiment on HCT-15, 29.9 µM; with HL-60, 21.9 µM (inactive); with HT-29, 18.6 µM (inactive). For the same compound, the GI50 is 21.1 µM (inactive) in the experiment on IGROV-1; 30.5 µM (inactive) in the experiment with KM12; 38.6 µM (inactive) in the experiment with M14; > 100 µM (inactive) in the experiment with MDA-MB-231; > 100 µM (inactive) in the experiment on MDA-N; 20.8 µM (inactive) with MOLT-4. Besides, the GI50 is 7.91 µM (inactive) with Malme-3M; > 100 µM (inactive) with NCI/ADR-RES; 90.8 µM (inactive) in the experiment with SF-295; > 100 µM (inactive) in the experiment with SK-MEL-2; 26.1 µM (inactive) in the experiment with SK-MEL-5; 40 µM (inactive) with SW-620.
On to `CCOC(=O)C(=Cc1[nH]c2ccccc2c1-c1c[nH]c2ccccc12)C(=O)OCC`, for which the GI50 with CAKI-1 was 17.1 µM (inactive); in the experiment on COLO 205 it was 16.2 µM (inactive); in the experiment on HCT-15, 10.1 µM; in the experiment on HT-29, 5 µM (inactive); in the experiment on IGROV-1 it was 11.1 µM (inactive); with KM12 it was 4.69 µM (inactive). The GI50 was 10 µM (inactive) in the experiment on M14; 16.9 µM (inactive) with MDA-MB-231; 13.3 µM (inactive) in the experiment on MDA-N; 0.923 µM (active) with MOLT-4; 18.7 µM (inactive) in the experiment on Malme-3M; 7.16 µM (inactive) with NCI/ADR-RES. Moreover, the GI50 was 10.8 µM (inactive) with RXF 393; 13.3 µM (inactive) with SF-268; 12.1 µM (inactive) in the experiment with SF-295; 11.7 µM (inactive) in the experiment on SK-MEL-2; 15.5 µM (inactive) in the experiment with SK-MEL-5.
